Measurements from PMC3609710 (Journal of chromatography. A, 2012).
Where two headings read alike, the source gives them in different places.

Format: in vivo, mouse (C57Bl/6)
Conditions: mouse serum, single IP injection of T1AM 25 mg/kg

Structure (SMILES) | serum concentration (10 minutes post-injection) [µM] | serum concentration (20 minutes post-injection) [µM] | greatest serum concentration (at 6 hours post-injection) [µM]
NCCc1ccc(Oc2ccc(O)cc2)c(I)c1 [T1AM, 3-Iodothyronamine] | 16.6 ± 8.5 | 5.6 ± 3.1 | 
O=C(O)Cc1ccc(Oc2ccc(O)cc2)cc1 [TA0, thyroacetic acid] |  |  | 0.77 ± 0.16
O=C(O)Cc1ccc(Oc2ccc(O)cc2)c(I)c1 [TA1, 3-iodothyroacetic acid] | 17.7 ± 4.6 | 23.5 ± 13.2 | 
